Test: wn = mass fraction of the nth substance listed
Conditions: Liquid, Pycnometric method, w2 = 0.4981

FC(F)C(F)(F)F [pentafluoroethane] + FCF
Conditions | mass density [kg/m3]
357.15 K, 9042 kPa | 773.5
357.15 K, 9048 kPa | 773.4
357.15 K, 16243 kPa | 919
357.15 K, 16254 kPa | 918.9
357.15 K, 16277 kPa | 919.1
358.15 K, 9284 kPa | 773.4
358.15 K, 9290 kPa | 773.3
358.15 K, 16617 kPa | 918.9
358.15 K, 16628 kPa | 918.8
358.15 K, 16652 kPa | 919.1
359.15 K, 9527 kPa | 773.3
359.15 K, 9532 kPa | 773.3
359.15 K, 16990 kPa | 918.8
359.15 K, 17003 kPa | 918.7
359.15 K, 17027 kPa | 919
360.15 K, 9770 kPa | 773.3
360.15 K, 9775 kPa | 773.2
360.15 K, 17365 kPa | 918.7
360.15 K, 17377 kPa | 918.7
360.15 K, 17401 kPa | 918.9
361.15 K, 10013 kPa | 773.2
361.15 K, 10019 kPa | 773.1
361.15 K, 17739 kPa | 918.6
361.15 K, 17752 kPa | 918.6
361.15 K, 17776 kPa | 918.8
362.15 K, 10256 kPa | 773.2
362.15 K, 10262 kPa | 773.1
362.15 K, 18113 kPa | 918.5
362.15 K, 18127 kPa | 918.5
362.15 K, 18151 kPa | 918.7
363.15 K, 10501 kPa | 773.1
363.15 K, 10506 kPa | 773
363.15 K, 18487 kPa | 918.4
363.15 K, 18501 kPa | 918.4
363.15 K, 18526 kPa | 918.6
364.15 K, 10745 kPa | 773.1
364.15 K, 10751 kPa | 773
364.15 K, 18862 kPa | 918.4
364.15 K, 18876 kPa | 918.3
364.15 K, 18899 kPa | 918.5
365.15 K, 10990 kPa | 773
365.15 K, 10996 kPa | 772.9
365.15 K, 19236 kPa | 918.3
365.15 K, 19250 kPa | 918.3
365.15 K, 19274 kPa | 918.4
366.15 K, 11235 kPa | 772.9
366.15 K, 11241 kPa | 772.9
366.15 K, 19610 kPa | 918.2
366.15 K, 19625 kPa | 918.2
366.15 K, 19649 kPa | 918.4
367.15 K, 11480 kPa | 772.9
367.15 K, 11486 kPa | 772.8
367.15 K, 19985 kPa | 918.1
367.15 K, 20000 kPa | 918.1
367.15 K, 20025 kPa | 918.3
368.15 K, 11726 kPa | 772.8
368.15 K, 11732 kPa | 772.7
368.15 K, 20360 kPa | 918
368.15 K, 20375 kPa | 918
368.15 K, 20400 kPa | 918.2
369.15 K, 11972 kPa | 772.8
369.15 K, 11979 kPa | 772.7
369.15 K, 20734 kPa | 917.9
369.15 K, 20750 kPa | 917.9
369.15 K, 20776 kPa | 918.1
370.15 K, 12219 kPa | 772.7
370.15 K, 12225 kPa | 772.6
370.15 K, 21109 kPa | 917.8
370.15 K, 21125 kPa | 917.8
370.15 K, 21150 kPa | 918
371.15 K, 12465 kPa | 772.6
371.15 K, 12472 kPa | 772.6
371.15 K, 21484 kPa | 917.7
371.15 K, 21500 kPa | 917.7
371.15 K, 21525 kPa | 917.9
372.15 K, 12712 kPa | 772.6
372.15 K, 12719 kPa | 772.5
372.15 K, 21859 kPa | 917.6
372.15 K, 21875 kPa | 917.6
372.15 K, 21901 kPa | 917.8
373.15 K, 12959 kPa | 772.5
373.15 K, 12966 kPa | 772.5
373.15 K, 22234 kPa | 917.5
373.15 K, 22250 kPa | 917.6
373.15 K, 22277 kPa | 917.8
374.15 K, 13207 kPa | 772.5
374.15 K, 13213 kPa | 772.4
374.15 K, 22609 kPa | 917.5
374.15 K, 22625 kPa | 917.5
374.15 K, 22654 kPa | 917.7
375.15 K, 13454 kPa | 772.4
375.15 K, 13461 kPa | 772.3
375.15 K, 22984 kPa | 917.4
375.15 K, 23000 kPa | 917.4
375.15 K, 23029 kPa | 917.6

From the NIST ThermoML archive (doi:10.1007/s10765-010-0766-0)
